Results: ChEMBL document CHEMBL1201862, “PubChem BioAssay data set” (2004)
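Five compound concentrations were applied to cells in 96-well plates for 48 hours; endpoints were derived by simple linear interpolation of the resulting dose-response curve. GI50 marks 50% less growth.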 The source made the active and inactive calls. No stated cut-off is given here; in the data, active = GI50 up to about 1.1 µM and inactive = higher.

Columns and labels:
Assay in all cases: inhibition of tumour cell growth, NCI panel, 48 h
CAKI-1 = system: CAKI-1
CCRF-CEM = system: CCRF-CEM
HL-60 = system: HL-60
HOP-92 = system: HOP-92
KM12 = system: KM12
M19-MEL = system: M19-MEL
MOLT-4 = system: MOLT-4
NCI-H226 = system: NCI-H226
NCI-H522 = system: NCI-H522
OVCAR-3 = system: OVCAR-3
OVCAR-8 = system: OVCAR-8
SF-539 = system: SF-539
SK-MEL-5 = system: SK-MEL-5
SNB-19 = system: SNB-19
TK-10 = system: TK-10
UO-31 = system: UO-31
SNB-75 = system: SNB-75
BT-549 = system: BT-549
DU-145 = system: DU-145
SR = system: SR

Row | Structure (SMILES) | GI50 (CAKI-1) | GI50 (CCRF-CEM) | GI50 (HL-60) | GI50 (HOP-92) | GI50 (KM12) | GI50 (M19-MEL) | GI50 (MOLT-4) | GI50 (NCI-H226) | GI50 (NCI-H522) | GI50 (OVCAR-3) | GI50 (OVCAR-8) | GI50 (SF-539) | GI50 (SK-MEL-5) | GI50 (SNB-19) | GI50 (TK-10) | GI50 (UO-31) | GI50 (SNB-75) | GI50 (BT-549) | GI50 (DU-145) | GI50 (SR)
1 | CC(=O)CC(=O)CCCC(=O)Nc1ccc(Cl)cc1C | > 100 µM (inactive) | > 100 µM (inactive) | > 100 µM (inactive) | > 100 µM (inactive) | > 100 µM (inactive) | > 100 µM (inactive) | > 100 µM (inactive) | > 100 µM (inactive) | > 100 µM (inactive) | > 100 µM (inactive) | > 100 µM (inactive) | > 100 µM (inactive) | > 100 µM (inactive) | > 100 µM (inactive) | > 100 µM (inactive) | > 100 µM (inactive) | – | – | – | –
2 | COc1ccc(Br)c(CCCCC(=O)O)c1 | > 100 µM (inactive) | > 100 µM (inactive) | > 100 µM (inactive) | 2.89 µM (inactive) | – | > 100 µM (inactive) | > 100 µM (inactive) | – | – | > 100 µM (inactive) | > 100 µM (inactive) | > 100 µM (inactive) | > 100 µM (inactive) | > 100 µM (inactive) | > 100 µM (inactive) | – | > 100 µM (inactive) | – | – | –
3 | CSc1nc2ccccc2c(=O)n1-c1cccc(C)c1 | 95.1 µM (inactive) | 32.6 µM (inactive) | 2.58 µM (inactive) | 26.5 µM (inactive) | 45.3 µM (inactive) | – | 28.8 µM (inactive) | > 100 µM (inactive) | 67.8 µM (inactive) | > 100 µM (inactive) | > 100 µM (inactive) | 78.9 µM (inactive) | 21.9 µM (inactive) | > 100 µM (inactive) | > 100 µM (inactive) | 0.364 µM (active) | 32 µM (inactive) | > 100 µM (inactive) | > 100 µM (inactive) | 15.7 µM (inactive)
4 | Nc1nc(Cl)c(Cl)c(NCC2(O)CCC2)n1 | 16.1 µM (inactive) | > 100 µM (inactive) | 44 µM (inactive) | 29.1 µM (inactive) | > 100 µM (inactive) | – | 33 µM (inactive) | 23.6 µM (inactive) | 18.3 µM (inactive) | 51.2 µM (inactive) | 92.9 µM (inactive) | > 100 µM (inactive) | 18.8 µM (inactive) | > 100 µM (inactive) | > 100 µM (inactive) | 31.2 µM (inactive) | > 100 µM (inactive) | 44.6 µM (inactive) | > 100 µM (inactive) | 47.5 µM (inactive)
5 | C/C(=N\Nc1nc2ccccc2s1)c1cc(C)ncn1 | 0.145 µM (active) | 0.0929 µM (active) | 0.0776 µM (active) | 1.54 µM (inactive) | 0.767 µM (active) | – | 0.104 µM (active) | 0.427 µM (active) | 0.07 µM (active) | 0.408 µM (active) | 0.29 µM (active) | 1.38 µM (inactive) | 0.459 µM (active) | 6.68 µM (inactive) | 15.3 µM (inactive) | 0.389 µM (active) | 1.34 µM (inactive) | 6.79 µM (inactive) | 2.19 µM (inactive) | 0.259 µM (active)
6 | NC1=NC(=O)C(CC(=O)Nc2ccc([N+](=O)[O-])cc2[N+](=O)[O-])S1 (stereo unspecified) | – | > 100 µM (inactive) | 83.2 µM (inactive) | 16.7 µM (inactive) | > 100 µM (inactive) | > 100 µM (inactive) | > 100 µM (inactive) | > 100 µM (inactive) | – | > 100 µM (inactive) | > 100 µM (inactive) | – | > 100 µM (inactive) | > 100 µM (inactive) | > 100 µM (inactive) | > 100 µM (inactive) | 92.9 µM (inactive) | – | – | –
7 | CCOC(=O)Nc1nc(-c2ccccc2)c(C)s1 | > 100 µM (inactive) | 31.5 µM (inactive) | 11.1 µM (inactive) | 11.7 µM (inactive) | > 100 µM (inactive) | – | 7.35 µM (inactive) | > 100 µM (inactive) | 28 µM (inactive) | 98.9 µM (inactive) | > 100 µM (inactive) | > 100 µM (inactive) | > 100 µM (inactive) | > 100 µM (inactive) | > 100 µM (inactive) | 60 µM (inactive) | 31.8 µM (inactive) | 53.8 µM (inactive) | 52.6 µM (inactive) | 49.9 µM (inactive)
8 | CCc1ccccc1NC(=O)C(C#N)C1=C(Cl)C(=O)c2ccccc2C1=O (stereo unspecified) | 20.3 µM (inactive) | 3.41 µM (inactive) | 26.2 µM (inactive) | 29.4 µM (inactive) | 13.5 µM (inactive) | – | 8.73 µM (inactive) | 15.3 µM (inactive) | 13.5 µM (inactive) | 5.69 µM (inactive) | 17.9 µM (inactive) | 18.9 µM (inactive) | 15.3 µM (inactive) | 25.4 µM (inactive) | 18.7 µM (inactive) | 13 µM (inactive) | 17.3 µM (inactive) | 21.9 µM (inactive) | 17.4 µM (inactive) | 21.6 µM (inactive)
9 | COC(=O)[C@@H]1[C@H](OC(C)=O)CCC2[C@@]3(C[C@@H](c4ccoc4)O[C@@H]3OC)[C@H](C)CC[C@]21C(=O)OC (stereo partly specified) | > 25 µM (inactive) | > 25 µM (inactive) | 19 µM (inactive) | > 25 µM (inactive) | > 25 µM (inactive) | – | > 25 µM (inactive) | > 25 µM (inactive) | > 25 µM (inactive) | > 25 µM (inactive) | > 25 µM (inactive) | > 25 µM (inactive) | > 25 µM (inactive) | > 25 µM (inactive) | > 25 µM (inactive) | > 25 µM (inactive) | > 25 µM (inactive) | > 25 µM (inactive) | > 25 µM (inactive) | > 25 µM (inactive)
10 | NC1(C(=O)OCc2ccccc2)CCCC1 | 19.4 µM (inactive) | 11.4 µM (inactive) | 0.21 µM (active) | 14.4 µM (inactive) | 26 µM (inactive) | – | 11.8 µM (inactive) | 30.1 µM (inactive) | 7.06 µM (inactive) | 11.6 µM (inactive) | 12.9 µM (inactive) | 11.2 µM (inactive) | 16.6 µM (inactive) | 21.2 µM (inactive) | 82.4 µM (inactive) | 15.6 µM (inactive) | 18 µM (inactive) | 17.1 µM (inactive) | 16.6 µM (inactive) | 33.5 µM (inactive)
11 | [O-][n+]1onc2c3nn(-c4ccccc4)nc3ccc21 | > 100 µM (inactive) | 25.6 µM (inactive) | 2.35 µM (inactive) | > 100 µM (inactive) | 18.6 µM (inactive) | – | 5.08 µM (inactive) | > 100 µM (inactive) | > 96.2 µM (inactive) | 22.2 µM (inactive) | > 91.4 µM (inactive) | > 100 µM (inactive) | > 100 µM (inactive) | > 100 µM (inactive) | > 71.1 µM (inactive) | > 100 µM (inactive) | > 100 µM (inactive) | > 82.6 µM (inactive) | 17.8 µM (inactive) | 4.43 µM (inactive)
12 | COc1cc2c(cc1OC)C(=O)/C(=C/c1ccccc1)CC2 | 17.1 µM (inactive) | 5.83 µM (inactive) | 0.0426 µM (active) | 24.8 µM (inactive) | 14.4 µM (inactive) | – | 18.1 µM (inactive) | 41.4 µM (inactive) | 52.6 µM (inactive) | 37.6 µM (inactive) | 45.5 µM (inactive) | 47.5 µM (inactive) | 17.1 µM (inactive) | 27.7 µM (inactive) | 33.4 µM (inactive) | > 100 µM (inactive) | 17 µM (inactive) | 12.5 µM (inactive) | 83.2 µM (inactive) | 13.5 µM (inactive)
13 | Nc1ccc(/N=N\c2ccc(-c3ccc(O)cc3)cc2)c2ccc(S(=O)(=O)O)cc12 | > 100 µM (inactive) | > 100 µM (inactive) | > 100 µM (inactive) | > 100 µM (inactive) | > 100 µM (inactive) | – | > 100 µM (inactive) | > 100 µM (inactive) | > 100 µM (inactive) | > 100 µM (inactive) | > 100 µM (inactive) | > 100 µM (inactive) | > 100 µM (inactive) | > 100 µM (inactive) | > 100 µM (inactive) | > 100 µM (inactive) | 77.1 µM (inactive) | > 100 µM (inactive) | > 100 µM (inactive) | > 100 µM (inactive)
14 | N=C1/C(=C/c2ccco2)C(=O)N=C2SC=NN12 | > 100 µM (inactive) | > 100 µM (inactive) | > 100 µM (inactive) | > 100 µM (inactive) | > 100 µM (inactive) | – | > 100 µM (inactive) | > 100 µM (inactive) | > 100 µM (inactive) | > 100 µM (inactive) | > 100 µM (inactive) | > 100 µM (inactive) | > 100 µM (inactive) | > 100 µM (inactive) | > 100 µM (inactive) | > 100 µM (inactive) | 99.1 µM (inactive) | > 100 µM (inactive) | > 100 µM (inactive) | > 100 µM (inactive)
15 | Cc1cc(Cl)ccc1C(=O)c1ccc2ccccc2c1C(=O)O | > 100 µM (inactive) | > 100 µM (inactive) | > 100 µM (inactive) | > 100 µM (inactive) | > 100 µM (inactive) | – | > 100 µM (inactive) | > 100 µM (inactive) | > 100 µM (inactive) | > 100 µM (inactive) | > 100 µM (inactive) | > 100 µM (inactive) | > 100 µM (inactive) | > 100 µM (inactive) | > 100 µM (inactive) | > 100 µM (inactive) | 85.3 µM (inactive) | > 100 µM (inactive) | > 100 µM (inactive) | > 100 µM (inactive)
